ChEMBL document CHEMBL1148416, “2-Alkylsulfanyl estrogen derivatives: synthesis of a novel class of multi-targeted anti-tumour agents” (Bioorg Med Chem Lett, 2004)

test system: MCF7; experiment: Anti-proliferative activity against MCF-7 human breast cancer cells was determined by using MCF-7 plate assay; type: functional, cell-based

For `CSc1cc2c(cc1O)CC[C@@H]1[C@@H]2CC[C@]2(C)[C@@H](O)CC[C@@H]12`, which IC50 is on record?
Its IC50 is 3.96 µM.

For `CSc1cc2c(cc1OS(N)(=O)=O)CC[C@@H]1[C@@H]2CC[C@]2(C)[C@@H](O)CC[C@@H]12`, which IC50 is on record?
The IC50 was 0.43 µM.

How did the IC50 turn out when `CCSc1cc2c(cc1OS(N)(=O)=O)CC[C@@H]1[C@@H]2CC[C@]2(C)[C@@H](O)CC[C@@H]12` was run?
Its IC50 is 35.3 µM.

With `CSc1cc2c(cc1OS(N)(=O)=O)CCC1[C@@H]2CC[C@]2(C)C(=O)CC[C@@H]12` (single isomer, unassigned) as the molecule, how does the IC50 read?
The IC50 was 0.4 µM.

`CSc1cc2c(cc1O)CCC1[C@@H]2CC[C@]2(C)C(=O)CC[C@@H]12` (single isomer, unassigned) was tested. Which IC50 did it give?
Its IC50 is 33.4 µM.

With `CCSc1cc2c(cc1O)CCC1[C@@H]2CC[C@]2(C)C(=O)CC[C@@H]12` (single isomer, unassigned) as the molecule, how does the IC50 read?
Its IC50 is 31.9 µM.

For `C[C@]12CC[C@@H]3c4ccc(OS(N)(=O)=O)cc4CCC3[C@@H]1CCC2=O` (single isomer, unassigned) [EMATE], which IC50 is on record?
The IC50 was 22.8 µM.

For `COc1cc2c(cc1O)CC[C@@H]1[C@@H]2CC[C@]2(C)[C@@H](O)CC[C@@H]12` [2-METHOXYESTRADIOL], which IC50 is on record?
The IC50 was 2.39 µM.
